In ChEMBL document CHEMBL3045307, “Synthesis, characterization, and urease inhibition of 5-substituted-8-methyl-2H-pyrido[1,2-a]pyrimidine-2,4(3H)-diones” (Med Chem Res, 2012):

Tests used:
[1] = molecular target: Urease (Canavalia ensiformis) (UniProt P07374); experiment: Inhibition of Canavalia ensiformis (jack bean) urease assessed as ammonia production using urea as substrate at 0.01 uM after 15 min by indophenol method
[2] = molecular target: Urease (Canavalia ensiformis) (UniProt P07374); experiment: Inhibition of Canavalia ensiformis (jack bean) urease assessed as ammonia production using urea as substrate at 10 uM after 15 min by indophenol method
[3] = molecular target: Urease (Canavalia ensiformis) (UniProt P07374); experiment: Inhibition of Canavalia ensiformis (jack bean) urease assessed as ammonia production using urea as substrate at 0.1 uM after 15 min by indophenol method
[4] = molecular target: Urease (Canavalia ensiformis) (UniProt P07374); experiment: Inhibition of Canavalia ensiformis (jack bean) urease assessed as ammonia production using urea as substrate at 100 uM after 15 min by indophenol method
[5] = molecular target: Urease (Canavalia ensiformis) (UniProt P07374); experiment: Inhibition of Canavalia ensiformis (jack bean) urease assessed as ammonia production using urea as substrate at 1 uM after 15 min by indophenol method

Urease (Canavalia ensiformis), sequence (P07374 whole entry, looked up): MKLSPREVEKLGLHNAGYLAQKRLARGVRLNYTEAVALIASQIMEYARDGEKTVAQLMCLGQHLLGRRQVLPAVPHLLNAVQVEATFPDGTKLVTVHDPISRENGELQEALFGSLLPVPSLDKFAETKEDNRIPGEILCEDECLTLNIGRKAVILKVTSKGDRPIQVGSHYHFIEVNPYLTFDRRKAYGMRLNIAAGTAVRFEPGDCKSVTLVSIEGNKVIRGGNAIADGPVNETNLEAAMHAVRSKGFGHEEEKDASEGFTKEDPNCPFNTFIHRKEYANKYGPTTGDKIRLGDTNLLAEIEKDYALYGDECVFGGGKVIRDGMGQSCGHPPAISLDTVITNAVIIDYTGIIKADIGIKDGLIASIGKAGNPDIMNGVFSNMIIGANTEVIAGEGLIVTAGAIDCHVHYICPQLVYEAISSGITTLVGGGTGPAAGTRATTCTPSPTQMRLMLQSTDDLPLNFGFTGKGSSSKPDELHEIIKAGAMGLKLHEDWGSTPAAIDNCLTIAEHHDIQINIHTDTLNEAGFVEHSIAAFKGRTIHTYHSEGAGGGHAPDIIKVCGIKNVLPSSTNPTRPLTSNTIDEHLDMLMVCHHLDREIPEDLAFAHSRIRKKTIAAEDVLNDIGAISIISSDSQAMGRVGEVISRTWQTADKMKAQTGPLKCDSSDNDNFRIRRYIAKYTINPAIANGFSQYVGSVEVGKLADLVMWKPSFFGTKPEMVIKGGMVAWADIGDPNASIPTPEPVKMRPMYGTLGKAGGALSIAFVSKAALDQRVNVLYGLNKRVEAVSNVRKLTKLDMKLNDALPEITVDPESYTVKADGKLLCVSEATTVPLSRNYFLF

`CC1=CC2=NC(=O)/C(=C\NNC(=O)c3ccc([N+](=O)[O-])cc3)C(=O)N2C=C1` was tested, and the inhibition [1] was 6%, the inhibition [2] was 60% and the inhibition [3] was 21%. The inhibition [4] was 87% and the inhibition [5] was 54%.
`CC(=O)c1cccc(N/C=C2\C(=O)N=C3C=C(C)C=CN3C2=O)c1` gave an inhibition [1] of -1%, an inhibition [2] of 28% and an inhibition [3] of 3%. It also gave an inhibition [4] of 45% and an inhibition [5] of 8%.
In the case of `CC1=CC2=NC(=O)CC(=O)N2C=C1`, the inhibition [1] was 1%, the inhibition [2] was 26% and the inhibition [3] was 6%. It also gave an inhibition [4] of 39% and an inhibition [5] of 12%.
`CC1=CC2=NC(=O)/C(=C\Nc3ccc(C)cn3)C(=O)N2C=C1` gave an inhibition [1] of 3%, an inhibition [2] of 48% and an inhibition [3] of 11%. For the same molecule, the inhibition [4] was 57% and the inhibition [5] was 24%.
`CC1=CC2=NC(=O)/C(=C\Nc3c(C)cc(C)cc3C)C(=O)N2C=C1` gave an inhibition [2] of -8%, an inhibition [3] of -6% and an inhibition [4] of 0.2%. It also gave an inhibition [5] of -1%.
`CC(=O)c1ccc(N/C=C2\C(=O)N=C3C=C(C)C=CN3C2=O)cc1` gave an inhibition [1] of -3%, an inhibition [2] of 5% and an inhibition [3] of -2%. For the same molecule, the inhibition [4] was 18% and the inhibition [5] was 1%.
Work on `CC1=CC2=NC(=O)/C(=C\Nc3cccc(F)c3)C(=O)N2C=C1` yielded an inhibition [2] of 3% and an inhibition [4] of 28%.
Molecule `CC1=CC2=NC(=O)/C(=C\NNC(=O)c3ccc(Cl)cc3)C(=O)N2C=C1` has an inhibition [1] of -4%, an inhibition [2] of 14% and an inhibition [3] of -2%. For the same molecule, the inhibition [4] was 43% and the inhibition [5] was 6%.
`CC1=CC2=NC(=O)/C(=C\NNC(=O)c3ccc(Br)cc3)C(=O)N2C=C1` gave an inhibition [1] of -8%, an inhibition [2] of 23% and an inhibition [3] of -2%. The inhibition [4] was 57% and the inhibition [5] was 3%.
`CC1=CC2=NC(=O)/C(=C\Nc3ccccc3S)C(=O)N2C=C1` was tested, and the inhibition [1] was 22%, the inhibition [2] was 73% and the inhibition [3] was 28%. For the same molecule, the inhibition [4] was 97% and the inhibition [5] was 60%.
`CC1=CC2=NC(=O)/C(=C\Nc3ccc([N+](=O)[O-])cn3)C(=O)N2C=C1` was tested, and the inhibition [1] was 3%, the inhibition [2] was 36% and the inhibition [3] was 6%. For the same molecule, the inhibition [4] was 48% and the inhibition [5] was 23%.
Molecule `CC1=CC2=NC(=O)/C(=C\Nc3cc(C)ccn3)C(=O)N2C=C1` has an inhibition [1] of 1%, an inhibition [2] of 20% and an inhibition [3] of 6%. The inhibition [4] was 33% and the inhibition [5] was 16%.
`CC1=CC2=NC(=O)/C(=C\Nc3ccc(F)cc3)C(=O)N2C=C1` showed an inhibition [1] of 1%, an inhibition [2] of 21% and an inhibition [3] of 6%. It also gave an inhibition [4] of 35% and an inhibition [5] of 14%.
For `CC1=CC2=NC(=O)/C(=C\Nc3ccccc3F)C(=O)N2C=C1`, the inhibition [1] was 3%, the inhibition [2] was 44% and the inhibition [3] was 10%. It also gave an inhibition [4] of 57% and an inhibition [5] of 26%.
In the case of `NC(N)=S`, the inhibition [1] was 8%, the inhibition [2] was 21% and the inhibition [3] was 8%. It also gave an inhibition [4] of 94% and an inhibition [5] of 15%.
`CC1=CC2=NC(=O)/C(=C\NNC(=O)c3ccccc3)C(=O)N2C=C1` gave an inhibition [1] of -1%, an inhibition [2] of 13% and an inhibition [3] of 1%. It also gave an inhibition [4] of 26% and an inhibition [5] of 6%.
`CC(=O)c1ccccc1N/C=C1\C(=O)N=C2C=C(C)C=CN2C1=O` showed an inhibition [1] of 11%, an inhibition [2] of 54% and an inhibition [3] of 19%. For the same molecule, the inhibition [4] was 69% and the inhibition [5] was 32%.
`CC1=CC2=NC(=O)/C(=C\NNC(=O)c3ccc(O)cc3)C(=O)N2C=C1` gave an inhibition [1] of -5%, an inhibition [2] of 22% and an inhibition [3] of -1%. The inhibition [4] was 39% and the inhibition [5] was 7%.
